Patent US7060822B1, “2-pyrazolin-5-ones” (Abbott GmbH & Co. KG, priority 1999, dated 2006)

melting point | Structure (SMILES)
232 to 234 °C | CCOC(=O)c1c(C)[nH]c(C=C2C(=O)NN=C2OCC)c1C [Example 158, 4-[(3,5-Dimethyl-4-ethoxycarbonylpyrrol-2-yl)methylene]-3-ethoxy-2-pyrazolin-5-one]
220 to 222 °C | Cc1[nH]c(C=C2C(=O)NN=C2c2cnccn2)c(C)c1CN(C)C [Example 121, 4-[(3,5-Dimethyl-4-dimethylaminomethylpyrrol-2-yl)methylene]-3-pyrazinyl-2-pyrazolin-5-one]
255 to 257 °C | Cc1[nH]c(C=C2C(=O)NN=C2c2cnccn2)c(C)c1CN1CCC(O)CC1 [Example 178, 4-{[3,5-Dimethyl-4-(4-hydroxypiperidinomethyl)pyrrol-2-yl]methylene}-3-pyrazinyl-2-pyrazolin-5-one]
120 to 122 °C | CC(C)C1=NNC(=O)C1=Cc1ccc[nH]1 [Example 105, 3-Isopropyl-4-[(pyrrol-2-yl)methylene]-2-pyrazolin-5-one]
235 to 238 °C | Cc1cc(C)c(C=C2C(=O)NN=C2c2cccnc2)[nH]1
222 °C | Cc1[nH]c(C=C2C(=O)NN=C2c2cnccn2)c(C)c1CCCCO [Example 192, 4-{[3,5-Dimethyl-4-(4-hydroxybutyl)pyrrol-2-yl]methylene}-3-pyrazinyl-2-pyrazolin-5-one]
302 to 304 °C | Cc1cccc2c(C=C3C(=O)NN=C3CCc3ccccc3)c[nH]c12 [Example 246, 4-[(7-Methylindol-3-yl)methylene]-3-phenylethyl-2-pyrazolin-5-one]
275 to 277 °C | O=C1NN=C(C2CC2)C1=Cc1cccs1 [Example 367, 3-Cyclopropyl-4-[(thien-2-yl)methylene]-2-pyrazolin-5-one]
210 to 212 °C | Cc1ccc(C=C2C(=O)NN=C2c2cccnc2)[nH]1
271 to 272 °C | O=C1NN=C(CCc2ccc(Cl)cc2)C1=Cc1c[nH]c2ccccc12 [Example 300, 3-(4-Chlorophenylethyl)-4-[(indol-3-yl)methylene]-2-pyrazolin-5-one]
230 to 232 °C | O=C1NN=C(c2cnccn2)C1=Cc1cc(C(=O)O)c[nH]1 [Example 137, 4-[(4-Carboxypyrrol-2-yl)methylene]-3-pyrazinyl-2-pyrazolin-5-one]
306 to 308 °C | Cc1[nH]c(C=C2C(=O)NN=C2c2cnccn2)c(C)c1CCO [Example 181, 4-{[3,5-Dimethyl-4-(2-hydroxyethyl)pyrrol-2-yl]methylene}-3-pyrazinyl-2-pyrazolin-5-one]
197 to 199 °C | CCOC1=NNC(=O)C1=Cc1ccc(C)[nH]1 [Example 46, 3-Ethoxy-4-[(5-methylpyrrol-2-yl)methylene]2-pyrazolin-5-one]
264 to 266 °C | CC(C)C1=NNC(=O)C1=Cc1c[nH]c2ccccc12 [Example 252, 3-Isopropyl-4-[(indol-3-yl)methylene]-2-pyrazolin-5-one]
296 to 298 °C | CC1(C)C(C2=NNC(=O)C2=Cc2c[nH]c3ccccc23)C1(C)C [Example 264, 4-[(Indol-3-yl)methylene]-3-(2,2,3,3-tetramethylcyclopropyl)-2-pyrazolin-5-one]
330 to 332 °C | CC(C)OC1=NNC(=O)C1=Cc1cn(C)c2cc(C(=O)O)ccc12 [Example 293, 4-[(6-Carboxy-1-methylindol-3-yl)methylene]-3-isopropoxy-2-pyrazolin-5-one]
228 to 230 °C | Cc1n[nH]cc1C=C1C(=O)NN=C1OC(C)C [Example 362, 3-Isopropoxy-4-[(3-methylpyrazol-4-yl)methylene]-2-pyrazolin-5-one]
295 to 300 °C | O=C1NN=C(Cc2ccc(O)cc2)C1=Cc1c[nH]c2ccccc12 [Example 228, 3-(4-hydroxybenzyl)-4-[(indol-3-yl)methylene]-2-pyrazolin-5-one]
229 to 231 °C | Cc1c[nH]c(C=C2C(=O)NN=C2C(C)C)c1CCC(=O)O [Example 55, 4-{(3-(2-Carboxyethyl)-4-methylpyrrol-2-yl]methylene}-3-isopropyl-2-pyrazolin-5-one]
240 to 242 °C | Cc1[nH]c(C=C2C(=O)NN=C2c2cnccn2)c(C)c1CN1CCCCC1 [Example 167, 4-[(3,5-Dimethyl-4-piperidinomethylpyrrol-2-yl)methylene]-3-pyrazinyl-2-pyrazolin-5-one]
263 to 265 °C | Cn1cc(C=C2C(=O)NN=C2c2cnccn2)c2ccccc21 [Example 289, 4-[(1-Methylindol-3-yl)methylene]-3-pyrazinyl-2-pyrazolin-5-one]
235 to 237 °C | Cc1cc(C)c(C=C2C(=O)NN=C2c2cccs2)[nH]1 [Example 129, 4-[(3,5-dimethylpyrrol-2-yl)methylene]-3-(2-thienyl)-2-pyrazolin-5-one]
206 to 210 °C | Cc1[nH]c(C=C2C(=O)NN=C2c2cnccn2)c(C)c1CN(C)C.O=C(O)/C=C\C(=O)O [Example 122, 4-[(3,5-Dimethyl-4-dimethylaminomethylpyrrol-2-yl)methylene]-3-pyrazinyl-2-pyrazolin-5-one maleate]

melting point | Structure (SMILES)
176 to 179 °C | O=C1NN=C(Cc2ccccc2)C1=Cc1cn(CCCCO)c2ncccc12 [Example 334, 3-Benzyl-4-{[1-(4-hydroxybutyl)-7-azaindol-3-yl]methylene}-2-pyrazolin-5-one]
208 to 210 °C | Cc1[nH]c(C=C2C(=O)NN=C2c2cccs2)c(C)c1CN(C)C [Example 143, 4-[(3,5-Dimethyl-4-dimethylaminomethylpyrrol-2-yl)methylene]-3-(2-thienyl)-2-pyrazolin-5-one]
274 to 277 °C | O=C1NN=C(Cc2ccc(Cl)cc2)C1=Cc1c[nH]c2ccccc12 [Example 223, 3-(4-Chlorobenzyl)-4-[(indol-3-yl)methylene]-2-pyrazolin-5-one]
305 to 307 °C | O=C1NN=C(c2cccnc2)C1=Cc1c[nH]c2ccccc12
271 to 272 °C | Cn1cc(C=C2C(=O)NN=C2c2ccno2)c2ccccc21 [Example 302, 3-(5-Isoxazolyl)-4-[(1-methylindol-3-yl)methylene]-2-pyrazolin-5-one]
205 to 206 °C | COC(=O)C(Cc1c(C=C2C(=O)NN=C2OC(C)C)[nH]c2ccccc12)NC(C)=O (stereo not shown) [Example 323, 3-Isopropoxy-4-{[3-(2-methoxycarbonyl-2-acetamidoethyl)indol-2-yl]methylene}-2-pyrazolin-5-one]
164 to 165 °C | COc1ccc(CC2=NNC(=O)C2=Cc2ccc[nH]2)cc1OC [Example 22, 3-(3,4-Dimethoxybenzyl)-4-[(pyrrol-2-yl)methylene]-2-pyrazolin-5-one]
248 to 250 °C | CCOC1=NNC(=O)C1=Cc1c[nH]c2ccccc12 [Example 237, 3-Ethoxy-4-[(indol-3-yl)methylene]-2-pyrazolin-5-one]
253 to 255 °C | CC(CC1=NNC(=O)C1=Cc1c[nH]c2ccccc12)c1ccccc1 (stereo not shown) [Example 233, 4-[(Indol-3-yl)methylene]-3-(2-phenylpropyl)-2-pyrazolin-5-one]
177 to 179 °C | CCOC(=O)C1=NNC(=O)C1=Cc1ccc[nH]1 [Example 104, 3-Ethoxycarbonyl-4-[(pyrrol-2-yl)methylene]-2-pyrazolin-5-one]
> 300 °C (dec.) | Cc1[nH]c(C=C2C(=O)NN=C2c2cnccn2)c(C)c1C(=O)CN(C)C.Cl
155 to 157 °C | O=C1NN=C(c2cccnc2)C1=Cc1cc2ccccc2[nH]1
161 to 163 °C | Cc1[nH]c(C=C2C(=O)NN=C2c2ccno2)c(C)c1CN(C)C [Example 169, 4-[(3,5-Dimethyl-4-dimethylaminomethylpyrrol-2-yl)methylene]-3-(5-isoxazolyl)-2-pyrazolin-5-one]
242 to 244 °C | Cc1cc(C2=NNC(=O)C2=Cc2[nH]c(C)c(CN(C)C)c2C)no1 [Example 177, 4-[(3,5-Dimethyl-4-dimethylaminomethylpyrrol-2-yl)methylene]-3-(5-methyl-3-isoxazolyl)-2-pyrazolin-5-one]
278 to 280 °C | O=C1NN=C(c2ccccn2)C1=Cc1c[nH]c2ccccc12 [Example 269, 4-[(Indol-3-yl)methylene]-3-(2-pyridyl)-2-pyrazolin-5-one]
305 to 307 °C | O=C(CC1=NNC(=O)C1=Cc1c[nH]c2ccccc12)Nc1ccc(Cl)cc1 [Example 253, 3-(4-Chlorophenylaminocarbonylmethyl)-4-[(indol-3-yl)methylene]-2-pyrazolin-5-one]
163 to 165 °C | CCc1c(C)[nH]c(C=C2C(=O)NN=C2C2CCOC2)c1C (stereo not shown) [Example 94, 4-[(3,5-Dimethyl-4-ethylpyrrol-2-yl)methylene]-3-(tetrahydrofuran-3-yl)-2-pyrazolin-5-one]
316 to 320 °C | O=C1NN=C(C2CC2)C1=Cc1cc2cc([N+](=O)[O-])ccc2[nH]1 [Example 318, 3-Cyclopropyl-4-[(5-nitroindol-2-yl)methylene]-2-pyrazolin-5-one]
199 to 201 °C | Cc1[nH]c(C=C2C(=O)NN=C2C2CC2)c(C)c1CN(C)C.O=C(O)/C=C\C(=O)O [Example 174, 3-Cyclopropyl-4-[(3,5-dimethyl-4-dimethylaminomethylpyrrol-2-yl)methylene]-2-pyrazolin-5-one maleate]
255 to 257 °C | CCOC(=O)c1c(C)[nH]c(C=C2C(=O)NN=C2c2ccno2)c1C [Example 161, 4-[(3,5-Dimethyl-4-ethoxycarbonylpyrrol-2-yl)methylene]-3-(5-isoxazolyl)-2-pyrazolin-5-one]
310 to 312 °C | CCOC1=NNC(=O)C1=Cc1[nH]c(C)c(C(=O)O)c1C [Example 151, 4-[(4-Carboxy-3,5-dimethylpyrrol-2-yl)methylene]-3-ethoxy-2-pyrazolin-5-one]
230 to 232 °C | Cn1cc(C=C2C(=O)NN=C2c2cccnc2)c2ccccc21 [Example 275, 4-[(1-Methylindol-3-yl)methylene]-3-(3-pyridyl)-2-pyrazolin-5-one]
259 to 260 °C | COC(=O)c1ccc(CCC2=NNC(=O)C2=Cc2c[nH]c3ccccc23)cc1 [Example 249, 4-[(Indol-3-yl)methylene]-3-(4-methoxycarbonylphenylethyl)-2-pyrazolin-5-one]
